Test results: the NIST ThermoML archive (doi:10.1021/je800591u)
± gives the expanded uncertainty stated by the source.

Conditions: Liquid, Ebulliometric method (Recirculating still)

Structure (SMILES)	vapor or sublimation pressure (288.15 K) [kPa]	vapor or sublimation pressure (303.15 K) [kPa]	vapor or sublimation pressure (318.15 K) [kPa]	vapor or sublimation pressure (333.15 K) [kPa]	vapor or sublimation pressure (348.15 K) [kPa]	vapor or sublimation pressure (363.15 K) [kPa]
FC(C(F)(F)F)C(F)(F)F [1,1,1,2,3,3,3-heptafluoropropane]	335 ± 14	529 ± 14	804 ± 14	1176 ± 15	1664 ± 16	2294 ± 17
C=C(C)C [2-methylpropene]	223 ± 14	352 ± 14	536 ± 14	785 ± 14	1107 ± 15	1515 ± 15
